Laboratory results from PubChem BioAssay (NCI).
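In this assay, cells in 96-well plates receive the compound at five concentrations for 48 hours. Endpoints are linearly interpolated between the surrounding concentrations. The concentration for 50% growth inhibition is given as GI50. At the TGI there is no net growth.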

Assays:
Test in all cases: inhibition of tumour cell growth, NCI panel, 48 h
MALME-3M melanoma = system: MALME-3M melanoma
SNB-75 CNS = system: SNB-75 CNS
LOX IMVI melanoma = system: LOX IMVI melanoma
HOP-92 NSCLC = system: HOP-92 NSCLC
SW-620 colon = system: SW-620 colon
NCI-H226 lung = system: NCI-H226 lung
MDA-MB-435 = system: MDA-MB-435
EKVX NSCLC = system: EKVX NSCLC
SF-295 CNS = system: SF-295 CNS
OVCAR-4 ovarian = system: OVCAR-4 ovarian
IGROV1 ovarian = system: IGROV1 ovarian
MDA-MB-231 breast = system: MDA-MB-231 breast
SK-MEL-28 melanoma = system: SK-MEL-28 melanoma
KM12 colon = system: KM12 colon
PC-3 prostate = system: PC-3 prostate
HL-60(TB) leukemia = system: HL-60(TB) leukemia
DU-145 prostate = system: DU-145 prostate
SF-268 CNS = system: SF-268 CNS
A498 renal = system: A498 renal
UACC-257 melanoma = system: UACC-257 melanoma
CCRF-CEM leukemia = system: CCRF-CEM leukemia
UACC-62 melanoma = system: UACC-62 melanoma
COLO 205 colon = system: COLO 205 colon
SR leukemia = system: SR leukemia
M14 melanoma = system: M14 melanoma
RXF 393 renal = system: RXF 393 renal
K-562 leukemia = system: K-562 leukemia
SF-539 CNS = system: SF-539 CNS
SK-OV-3 ovarian = system: SK-OV-3 ovarian
CAKI-1 renal = system: CAKI-1 renal
HCC-2998 colon = system: HCC-2998 colon
OVCAR-8 ovarian = system: OVCAR-8 ovarian
MCF7 breast = system: MCF7 breast
NCI-H23 lung = system: NCI-H23 lung
UO-31 renal = system: UO-31 renal
SK-MEL-5 melanoma = system: SK-MEL-5 melanoma
SNB-19 CNS = system: SNB-19 CNS
NCI-H460 lung = system: NCI-H460 lung
OVCAR-3 ovarian = system: OVCAR-3 ovarian
A549 NSCLC = system: A549 NSCLC
HS 578T breast = system: HS 578T breast
OVCAR-5 ovarian = system: OVCAR-5 ovarian
MOLT-4 leukemia = system: MOLT-4 leukemia
786-0 renal = system: 786-0 renal
U251 CNS = system: U251 CNS
ACHN renal = system: ACHN renal
HCT-15 colon = system: HCT-15 colon
NCI/ADR-RES ovarian = system: NCI/ADR-RES ovarian
RPMI-8226 leukemia = system: RPMI-8226 leukemia
HOP-62 NSCLC = system: HOP-62 NSCLC
HCT-116 colon = system: HCT-116 colon

Q: `COc1cc(/C=C/[N+](=O)[O-])c([N+](=O)[O-])cc1OC` was tested. Which GI50 (MALME-3M melanoma) did it give?
A: Its GI50 is 1710 nM.

Q: What about the TGI (MALME-3M melanoma) of the same molecule?
A: Its TGI is 3380 nM.

Q: What about the GI50 (SNB-75 CNS) of the same molecule?
A: Its GI50 is 2250 nM.

Q: What about the TGI (SNB-75 CNS) of the same molecule?
A: The TGI was 7560 nM.

Q: What about the GI50 (LOX IMVI melanoma) of the same molecule?
A: Its GI50 is 1680 nM.

Q: And the TGI (LOX IMVI melanoma)?
A: The TGI was 3050 nM.

Q: And the GI50 (HOP-92 NSCLC)?
A: The GI50 was 2050 nM.

Q: And the TGI (HOP-92 NSCLC)?
A: The TGI was 4270 nM.

Q: And the GI50 (SW-620 colon)?
A: The GI50 was 785 nM.

Q: What about the TGI (SW-620 colon) of the same molecule?
A: Its TGI is 2260 nM.

Q: And the GI50 (NCI-H226 lung)?
A: The GI50 was 2630 nM.

Q: And the TGI (NCI-H226 lung)?
A: Its TGI is 7680 nM.

Q: And the GI50 (MDA-MB-435)?
A: Its GI50 is 2170 nM.

Q: What about the TGI (MDA-MB-435) of the same molecule?
A: Its TGI is 7510 nM.

Q: And the GI50 (EKVX NSCLC)?
A: Its GI50 is 8980 nM.

Q: And the TGI (EKVX NSCLC)?
A: Its TGI is 22600 nM.

Q: What about the GI50 (SF-295 CNS) of the same molecule?
A: Its GI50 is 6720 nM.

Q: What about the TGI (SF-295 CNS) of the same molecule?
A: Its TGI is 22100 nM.

Q: What about the GI50 (OVCAR-4 ovarian) of the same molecule?
A: The GI50 was 1570 nM.

Q: And the TGI (OVCAR-4 ovarian)?
A: The TGI was 2930 nM.

Q: And the GI50 (IGROV1 ovarian)?
A: The GI50 was 2550 nM.

Q: What about the TGI (IGROV1 ovarian) of the same molecule?
A: The TGI was 11900 nM.

Q: What about the GI50 (MDA-MB-231 breast) of the same molecule?
A: The GI50 was 1700 nM.

Q: And the TGI (MDA-MB-231 breast)?
A: Its TGI is 3460 nM.

Q: And the GI50 (SK-MEL-28 melanoma)?
A: Its GI50 is 2060 nM.

Q: And the TGI (SK-MEL-28 melanoma)?
A: The TGI was 4720 nM.

Q: What about the GI50 (KM12 colon) of the same molecule?
A: The GI50 was 1930 nM.

Q: What about the TGI (KM12 colon) of the same molecule?
A: Its TGI is 3920 nM.

Q: What about the GI50 (PC-3 prostate) of the same molecule?
A: Its GI50 is 2300 nM.

Q: And the TGI (PC-3 prostate)?
A: Its TGI is 5700 nM.

Q: What about the GI50 (HL-60(TB) leukemia) of the same molecule?
A: The GI50 was 1320 nM.

Q: And the TGI (HL-60(TB) leukemia)?
A: The TGI was 5710 nM.

Q: And the GI50 (DU-145 prostate)?
A: Its GI50 is 1580 nM.

Q: What about the TGI (DU-145 prostate) of the same molecule?
A: Its TGI is 2930 nM.

Q: And the GI50 (SF-268 CNS)?
A: The GI50 was 2710 nM.

Q: What about the TGI (SF-268 CNS) of the same molecule?
A: Its TGI is 11300 nM.

Q: And the GI50 (A498 renal)?
A: Its GI50 is 3030 nM.

Q: What about the TGI (A498 renal) of the same molecule?
A: The TGI was 11900 nM.

Q: And the GI50 (UACC-257 melanoma)?
A: The GI50 was 2910 nM.

Q: And the TGI (UACC-257 melanoma)?
A: The TGI was 11900 nM.

Q: And the GI50 (CCRF-CEM leukemia)?
A: The GI50 was 2130 nM.

Q: What about the TGI (CCRF-CEM leukemia) of the same molecule?
A: Its TGI is 6070 nM.

Q: What about the GI50 (UACC-62 melanoma) of the same molecule?
A: Its GI50 is 2340 nM.

Q: What about the TGI (UACC-62 melanoma) of the same molecule?
A: The TGI was 7140 nM.

Q: And the GI50 (COLO 205 colon)?
A: The GI50 was 1160 nM.

Q: What about the TGI (COLO 205 colon) of the same molecule?
A: Its TGI is 2430 nM.

Q: What about the GI50 (SR leukemia) of the same molecule?
A: The GI50 was 1600 nM.

Q: What about the TGI (SR leukemia) of the same molecule?
A: The TGI was 8240 nM.

Q: And the GI50 (M14 melanoma)?
A: The GI50 was 1600 nM.

Q: What about the TGI (M14 melanoma) of the same molecule?
A: The TGI was 2980 nM.

Q: What about the GI50 (RXF 393 renal) of the same molecule?
A: Its GI50 is 1380 nM.

Q: And the TGI (RXF 393 renal)?
A: Its TGI is 2670 nM.

Q: What about the GI50 (K-562 leukemia) of the same molecule?
A: Its GI50 is 1640 nM.

Q: And the TGI (K-562 leukemia)?
A: Its TGI is over 100000 nM.

Q: What about the GI50 (SF-539 CNS) of the same molecule?
A: Its GI50 is 3270 nM.

Q: What about the TGI (SF-539 CNS) of the same molecule?
A: Its TGI is 84700 nM.

Q: What about the GI50 (SK-OV-3 ovarian) of the same molecule?
A: The GI50 was 12800 nM.

Q: What about the TGI (SK-OV-3 ovarian) of the same molecule?
A: The TGI was 25400 nM.

Q: And the GI50 (CAKI-1 renal)?
A: The GI50 was 1700 nM.

Q: What about the TGI (CAKI-1 renal) of the same molecule?
A: The TGI was 7170 nM.

Q: What about the GI50 (HCC-2998 colon) of the same molecule?
A: The GI50 was 1730 nM.

Q: What about the TGI (HCC-2998 colon) of the same molecule?
A: The TGI was 3220 nM.

Q: What about the GI50 (OVCAR-8 ovarian) of the same molecule?
A: The GI50 was 2500 nM.

Q: What about the TGI (OVCAR-8 ovarian) of the same molecule?
A: Its TGI is 9460 nM.

Q: What about the GI50 (MCF7 breast) of the same molecule?
A: Its GI50 is 1120 nM.

Q: And the TGI (MCF7 breast)?
A: The TGI was 2730 nM.

Q: What about the GI50 (NCI-H23 lung) of the same molecule?
A: Its GI50 is 2120 nM.

Q: What about the TGI (NCI-H23 lung) of the same molecule?
A: The TGI was 4940 nM.

Q: And the GI50 (UO-31 renal)?
A: The GI50 was 1360 nM.

Q: What about the TGI (UO-31 renal) of the same molecule?
A: Its TGI is 2810 nM.

Q: What about the GI50 (SK-MEL-5 melanoma) of the same molecule?
A: The GI50 was 3390 nM.

Q: And the TGI (SK-MEL-5 melanoma)?
A: The TGI was 12300 nM.

Q: What about the GI50 (SNB-19 CNS) of the same molecule?
A: The GI50 was 6000 nM.

Q: And the TGI (SNB-19 CNS)?
A: The TGI was 19800 nM.

Q: And the GI50 (NCI-H460 lung)?
A: Its GI50 is 2330 nM.

Q: What about the TGI (NCI-H460 lung) of the same molecule?
A: The TGI was 5670 nM.

Q: And the GI50 (OVCAR-3 ovarian)?
A: The GI50 was 1300 nM.

Q: And the TGI (OVCAR-3 ovarian)?
A: The TGI was 2570 nM.

Q: And the GI50 (A549 NSCLC)?
A: Its GI50 is 3380 nM.

Q: And the TGI (A549 NSCLC)?
A: Its TGI is 10300 nM.

Q: And the GI50 (HS 578T breast)?
A: The GI50 was 1880 nM.

Q: And the TGI (HS 578T breast)?
A: Its TGI is 7450 nM.

Q: And the GI50 (OVCAR-5 ovarian)?
A: The GI50 was 1980 nM.

Q: And the TGI (OVCAR-5 ovarian)?
A: Its TGI is 3980 nM.

Q: And the GI50 (MOLT-4 leukemia)?
A: Its GI50 is 2210 nM.

Q: And the TGI (MOLT-4 leukemia)?
A: Its TGI is 9110 nM.

Q: What about the GI50 (786-0 renal) of the same molecule?
A: Its GI50 is 1610 nM.

Q: And the TGI (786-0 renal)?
A: Its TGI is 2950 nM.

Q: And the GI50 (U251 CNS)?
A: Its GI50 is 1920 nM.

Q: And the TGI (U251 CNS)?
A: The TGI was 5350 nM.

Q: What about the GI50 (ACHN renal) of the same molecule?
A: Its GI50 is 1560 nM.

Q: And the TGI (ACHN renal)?
A: The TGI was 2900 nM.

Q: What about the GI50 (HCT-15 colon) of the same molecule?
A: Its GI50 is 1330 nM.

Q: And the TGI (HCT-15 colon)?
A: Its TGI is 4490 nM.

Q: And the GI50 (NCI/ADR-RES ovarian)?
A: Its GI50 is 2850 nM.

Q: What about the TGI (NCI/ADR-RES ovarian) of the same molecule?
A: Its TGI is 10100 nM.

Q: And the GI50 (RPMI-8226 leukemia)?
A: Its GI50 is 2530 nM.

Q: What about the TGI (RPMI-8226 leukemia) of the same molecule?
A: The TGI was 5740 nM.

Q: What about the GI50 (HOP-62 NSCLC) of the same molecule?
A: The GI50 was 2910 nM.

Q: And the TGI (HOP-62 NSCLC)?
A: Its TGI is 8740 nM.

Q: What about the GI50 (HCT-116 colon) of the same molecule?
A: The GI50 was 977 nM.

Q: What about the TGI (HCT-116 colon) of the same molecule?
A: Its TGI is 2140 nM.
